Test results taken from publication PMC8501799, “Constitutive signal bias mediated by the human GHRHR splice variant 1” (Proceedings of the National Academy of Sciences of the …, 2021).

Key:
Format in all cases: cell-based, human
GHRHR ΔECD = assay: cAMP accumulation
Experimental: (§1) GHRH-stimulated cAMP accumulation was measured by a LANCE Ultra cAMP kit (PerkinElmer). Briefly, HEK293T cells (24 h after transfection with SV1 or GHRHR) or prostate cancer cells were digested by 0.2% (wt/vol) EDTA and washed once with Dulbecco’s phosphate-buffered saline (PBS). Cells were then resuspended with stimulation buffer (Hanks’ balanced salt solution [HBSS] supplemented with 5 mM HEPES, 0.5 mM IBMX, and 0.1% [wt/vol] bovine serum albumin [BSA], pH 7.4) to a density of 0.6 million cells per milliliter and added to 384-well white plates (3,000 cells per well). […] The reaction was stopped by adding 5 μL Eu-cAMP tracer and 5 μL ULight-anti-cAMP. After 1 h RT incubation, TR-FRET signals (excitation: 320 nm, emission: 615 and 665 nm) were measured by an Envision plate reader (PerkinElmer). cAMP concentrations were interpolated by a standard curve.
All functional study data were analyzed using Prism 7 (GraphPad) and presented as means ± SEM from at least three independent experiments. Concentration-response curves were evaluated with a three-parameter logistic equation. The significance was determined with either two-tailed Student’s t test or one-way ANOVA, and P < 0.05 is considered statistically significant.
Table S2. Effects of residue mutation or truncation in the ECD of GHRHR on GHRH-induced cAMP […]
Mutant pEC50 Emax (% WT GHRHR) expression ΔLog (τ/KA) […]
cAMP accumulation data were analyzed using a three-parameter logistic equation to determine pEC50 and Emax values. pEC50 is the negative logarithm of the molar concentration of agonist that induced half the maximal response. Emax for mutants is expressed as a percentage of the WT GHRHR. Data were analyzed by nonlinear regression using the operational model equation to determine t he logR values (logτ/KA, i.e., logarithm of the transduction ratio). τ is the effi cacy value of the agonist and was corrected by cell surface expression of the receptor. KA is dissociation constant. Changes in transduction ratio (ΔlogR) were calculated to determine the relative effectiveness of the mutants. All values are means ± S.E.M. of at le ast three ind ep en dent experiments (n = 3-5) conducted in quadruplicate. Statistical analysis was carried out by comparing the control responses in the WT GHRHR. **, P < 0.01 and ***, P < 0.001, determined by one-way

[1] = tested on: GHRHR mutants (F82, F85, D274, E223, N296, L337, F338 to alanine); assay: β-arrestin 1 recruitment (BRET), GHRHR single-point alanine mutants; settings: single residue to alanine; 250 μM GHRH; HEK293T; Fig. 5G
Experimental: (§2) HEK293T cells were seeded at a density of 30,000 cells per well into 96-well culture plates pretreated with poly-D-lysine hydrobromide. After incubation for 24 h to reach 70% to 80% confluence, the cells were transiently transfected with HA-Flag-GHRHR-Rluc8 or HA-Flag-SV1-Rluc8 and β-arrestin 1/2-Venus at a 1:9 mass ratio using lipofectamine 3000 reagent (Invitrogen) and cultured for another 24 h. Thereafter, cells were washed once and incubated for 30 min at 37 °C with HBSS buffer (pH 7.4) supplemented with 0.1% BSA and 10 mM HEPES. Five micromolars of coelenterazine h (YEASEN Biotechnology) was then added and incubated for 5 min in the dark. The bioluminescence resonance energy transfer (BRET) signals were detected with an Envision plate reader by calculating the ratio of emission at 535 nm over emission at 470 nm.

22Rv1 cells = assay: ERK1/2 phosphorylation in prostate cancer cells; settings: 1 μM GHRH; among three prostate cancer cell lines
Experimental: Spodoptera frugiperda (Sf9) insect cells (Expression Systems) were grown in ESF 921 serum-free medium (Expression Systems) at 27 °C and 120 rpm. HEK293T cells were purchased from American Type Culture Collection (ATCC), cultured in Dulbecco’s modified Eagle’s medium (DMEM; Life Technologies), supplemented with 10% fetal bovine serum (FBS; Gibco), and maintained in a humidified chamber with 5% CO2 at 37 °C. The PC3 prostate cancer cell line (ATCC) was cultured in F12 medium supplemented with 10% FBS and maintained in a humidified chamber with 5% CO2 at 37 °C. 22Rv1 and LNCaP human prostate cancer cells (ATCC) were cultured in Roswell Park Memorial Institute (RPMI)-1640 medium supplemented with 10% FBS and maintained in a humidified atmosphere containing 5% CO2 at 37 °C.
ERK1/2 phosphorylation was detected with the AlphaScreen SureFire ERK1/2 assay kit (PerkinElmer). […] The plate was incubated in the dark at 37 °C for 1 h, after which the fluorescence signal was measured by an Envision plate reader using standard AlphaScreen settings.
The cells were then lysed with radioimmunoprecipitation assay lysis buffer (Sigma-Aldrich) on ice for 5 min and centrifuged at 12,000 rpm for 15 min. Protein concentration of the supernatant was determined by BCA protein assay kit (Beyotime). […]

SV1 mutants = assay: cAMP accumulation, peptide-binding pocket mutants of SV1; settings: impairing contacts in the peptide-binding pocket; HEK293T; Fig. 4D
Experimental: as §1

[2] = tested on: GHRHR ECD mutants (L34, L62, F82, F85 to alanine); assay: β-arrestin 1/2 recruitment (BRET), GHRHR ECD alanine mutants; settings: HEK293T
Experimental: as §2

Q: For `CC[C@H](C)[C@H](NC(=O)[C@H](C)NC(=O)[C@H](CC(=O)O)NC(=O)[C@H](C)NC(=O)[C@@H](N)Cc1ccc(O)cc1)C(=O)N[C@@H](Cc1ccccc1)C(=O)N[C@H](C(=O)N[C@@H](CC(N)=O)C(=O)N[C@@H](CO)C(=O)N[C@@H](Cc1ccc(O)cc1)C(=O)N[C@@H](CCCNC(=N)N)C(=O)N[C@@H](CCCCN)C(=O)N[C@H](C(=O)N[C@@H](CC(C)C)C(=O)NCC(=O)N[C@@H](CCC(N)=O)C(=O)N[C@@H](CC(C)C)C(=O)N[C@@H](CO)C(=O)N[C@@H](C)C(=O)N[C@@H](CCCNC(=N)N)C(=O)N[C@@H](CCCCN)C(=O)N[C@@H](CC(C)C)C(=O)N[C@@H](CC(C)C)C(=O)N[C@@H](CCC(N)=O)C(=O)N[C@@H](CC(=O)O)C(=O)N[C@H](C(=O)N[C@@H](CCSC)C(=O)N[C@@H](CO)C(=O)N[C@@H](CCCNC(=N)N)C(=O)N[C@@H](CCC(N)=O)C(=O)N[C@@H](CCC(N)=O)C(=O)NCC(=O)N[C@@H](CCC(=O)O)C(=O)N[C@@H](CO)C(=O)N[C@@H](CC(N)=O)C(=O)N[C@@H](CCC(N)=O)C(=O)N[C@@H](CCC(=O)O)C(=O)N[C@@H](CCCNC(=N)N)C(=O)NCC(=O)N[C@@H](C)C(=O)N[C@@H](CCCNC(=N)N)C(=O)N[C@@H](C)C(=O)N[C@@H](CCCNC(=N)N)C(=O)N[C@@H](CC(C)C)C(N)=O)[C@@H](C)CC)C(C)C)[C@@H](C)O` [GHRH, growth hormone–releasing hormone], which “cAMP responses after deletion of the entire ECD” value (GHRHR ΔECD; HEK293T, Fig. 1B) is on record?
A: diminished cAMP responses

Q: And the “pEC50 of cAMP accumulation” value (GHRHR ΔECD; Table S2, HEK293T, LANCE Ultra cAMP, 30 min RT, 0.5 mM IBMX, mean ± SEM, n = 3-5 in quadruplicate)?
A: 5.53 ± 0.07

Q: What about the “Emax of cAMP accumulation” value (GHRHR ΔECD; Table S2, HEK293T, mean ± SEM, n = 3-5 in quadruplicate) of the same molecule?
A: 111.27 ± 3.65 % WT GHRHR

Q: What about the “ΔLog (τ/KA)” value (GHRHR ΔECD; Table S2, operational model, τ corrected by cell surface expression, relative to WT GHRHR, mean ± SEM) of the same molecule?
A: -4.55 ± 0.04

Q: And the “β-arrestin 1 recruitment” value [1]?
A: significantly increased the capability of GHRHR to recruit β-arrestin 1

Q: And the pERK1/2 response (22Rv1 cells)?
A: markedly stronger and longer pERK1/2 response

Q: And the “potency of GHRH-induced cAMP accumulation” value (SV1 mutants)?
A: dramatically decreased the potency

Q: What about the “β-arrestin 1/2 recruitments” value ([2]; F82A and F85A mutants of GHRHR) of the same molecule?
A: enhanced β-arrestin 1/2 recruitments

Q: What about the “β-arrestin 1/2 recruitments” value ([2]; any or all of four ECD residues (L34, L62, F82, F85) to alanine) of the same molecule?
A: enhanced β-arrestin 1/2 recruitments
